Assays:
Experiment in all cases: PDH-coupled PDHK assay (residual PDH activity, NADH absorbance at […] nm), […] ATP
Assay type in all cases: biochemical
[1] = target: T1, human PDHK1 (hPDHK1, pyruvate dehydrogenase kinase 1) (Homo sapiens, UniProt Q15118)
T1 construct: gene PDK1; recombinant, Flag-tag at the N-terminus; with PDH enzyme derived from porcine heart (PDH/PDHK complex)

[2] = target: T2, human PDHK3 (hPDHK3, pyruvate dehydrogenase kinase 3) (Homo sapiens, UniProt Q15120)
T2 construct: gene PDK3; recombinant, Flag-tag at the N-terminus; with PDH enzyme derived from porcine heart (PDH/PDHK complex)
T2 sequence (Q15120 whole entry): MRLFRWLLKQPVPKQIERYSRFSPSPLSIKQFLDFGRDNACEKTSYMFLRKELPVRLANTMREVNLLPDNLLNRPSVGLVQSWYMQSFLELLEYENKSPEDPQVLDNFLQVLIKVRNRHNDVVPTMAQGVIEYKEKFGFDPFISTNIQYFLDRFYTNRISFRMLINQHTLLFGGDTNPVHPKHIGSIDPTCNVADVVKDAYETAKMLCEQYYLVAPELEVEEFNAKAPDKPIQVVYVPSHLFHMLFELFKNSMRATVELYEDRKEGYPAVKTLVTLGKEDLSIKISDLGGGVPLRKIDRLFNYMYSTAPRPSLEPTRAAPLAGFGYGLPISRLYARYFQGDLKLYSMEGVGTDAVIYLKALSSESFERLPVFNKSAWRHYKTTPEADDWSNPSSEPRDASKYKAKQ

[3] = target: T3, human PDHK2 (hPDHK2, pyruvate dehydrogenase kinase 2) (Homo sapiens, UniProt Q15119)
T3 construct: gene PDK2; recombinant, Flag-tag at the N-terminus; with PDH enzyme derived from porcine heart (PDH/PDHK complex)

T1 sequence (Q15118 29-436): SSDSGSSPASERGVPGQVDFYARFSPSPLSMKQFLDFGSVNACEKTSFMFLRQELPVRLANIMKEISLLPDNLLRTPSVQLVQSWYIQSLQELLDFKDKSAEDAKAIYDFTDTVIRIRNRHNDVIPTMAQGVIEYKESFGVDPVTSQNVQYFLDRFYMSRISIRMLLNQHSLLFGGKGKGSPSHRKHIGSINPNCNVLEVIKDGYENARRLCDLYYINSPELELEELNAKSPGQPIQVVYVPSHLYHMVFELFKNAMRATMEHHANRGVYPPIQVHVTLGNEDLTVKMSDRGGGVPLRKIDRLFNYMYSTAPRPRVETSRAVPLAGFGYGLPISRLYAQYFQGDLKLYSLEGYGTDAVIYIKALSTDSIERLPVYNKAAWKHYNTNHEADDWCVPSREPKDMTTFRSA

IC50 [1]: 8.17 ± 0.56 nM
IC50 [2]: 50.5 ± 3.23 nM
IC50 [3]: 5.33 ± 0.12 nM
Structure (SMILES): C[C@H]1CN(C(=O)c2c(F)cc(C#N)cc2F)Cc2cnc([C@@](C)(O)C(F)(F)F)n21 [Compound A]

— article PMC11376040, “A novel PDHK inhibitor restored cognitive dysfunction and limited neurodegeneration without affecting amyloid pathology in 5xFAD mouse, a model of Alzheimer’s disease” (Alzheimer's Research & Therapy, 2024)
